From patent publication US8496967B2, “Oral formulations” (ARIAD Pharmaceuticals, Inc., priority 2006, dated 2013) come the findings set out here.

In series [1] the test system is human tumor cell lines, including prostate, endometrial, soft tissue and bone sarcoma, leukemia, lymphoma and glioblastoma cell lines. The series is described as follows: in vitro proliferation of human tumor cell lines. It counts as cell-based.
Series [2] has the same test system. Kind of series: in vivo xenograft models of human tumor cell lines. On the technique in general: In xenograft studies the graft and the host belong to different species.
A short description of series [3]: study of the degradation of AP23573. It counts as physicochemical.

As to `CO[C@H]1C[C@@H]2CC[C@@H](C)[C@@](O)(O2)C(=O)C(=O)N2CCCC[C@H]2C(=O)O[C@H]([C@H](C)C[C@@H]2CC[C@@H](OP(C)(C)=O)[C@H](OC)C2)CC(=O)[C@H](C)/C=C(\C)[C@@H](O)[C@@H](OC)C(=O)[C@H](C)C[C@H](C)/C=C/C=C/C=C/1C` [AP23573, 43-dimethylphosphinate ester of rapamycin], the “inhibition of proliferation of human tumor cell lines” value in series [1] and in series [2] was “potently inhibited proliferation” in each case. Moreover, the aqueous degradation result in series [3] (aqueous, forms ring opened seco-AP23573) was “undergoes aqueous degradation via cleavage of a lactone bond”. Further, in series [3] (oxidation), the oxidative degradation pathway result is listed as “oxidation of the compound's triene moiety”.
